Results on eleven compounds are retold here after ChEMBL document CHEMBL1201862, “PubChem BioAssay data set” (2004).

Each structure is given as a SMILES string.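 How tested: cells in 96-well plates exposed to compound for 48 hours at five concentrations. GI50 marks 50% less growth.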 Active and inactive are the calls of the source. No stated cut-off is given here; in the data, active = GI50 up to about 1.1 µM and inactive = higher. Some results are limits rather than exact numbers.

Some test systems named below: SW-620; SN12C; LOX IMVI; HL-60; K562; TK-10; M14; SK-MEL-28; HOP-62; SNB-75; UACC-62; CAKI-1; 786-0; SF-539; COLO 205; Malme-3M; UACC-257; MOLT-4; RXF 393.
Experiment in all cases: NCI tumour cell line growth inhibition, 48 h

Consider `CC(=O)OCC1OC(n2cc(F)c(=O)[nH]c2=O)C(NC(=O)N(CCCl)N=O)C(OC(C)=O)C1OC(C)=O` (stereo not drawn), for which the GI50 with SW-620 is > 100 µM (inactive); in the assay with SN12C it was > 100 µM (inactive); in the assay with LOX IMVI, 43.3 µM (inactive); in the assay on HL-60, 51.5 µM (inactive); with K562, > 100 µM (inactive); with TK-10, > 100 µM (inactive). The GI50 with M14 was > 100 µM (inactive); in the assay with SK-MEL-28 it was > 100 µM (inactive); in the assay with HOP-62, > 100 µM (inactive); with SNB-75 it was 16.6 µM (inactive); in the assay with UACC-62 it was 23.2 µM (inactive); with CAKI-1 it was > 100 µM (inactive). Further, the GI50 with 786-0 is 54.2 µM (inactive); in the assay on SF-539, 29.3 µM (inactive); in the assay with COLO 205, > 100 µM (inactive); with Malme-3M it was > 100 µM (inactive); in the assay with UACC-257, > 100 µM (inactive); in the assay with MOLT-4 it was 87.1 µM (inactive).

Take `N#CC(C#N)C(c1ccccc1)c1ccccc1`: the GI50 is > 100 µM (inactive) in the assay with SW-620; > 100 µM (inactive) in the assay on SN12C; > 100 µM (inactive) with LOX IMVI; > 100 µM (inactive) in the assay with HL-60; 91 µM (inactive) in the assay on K562; > 100 µM (inactive) with TK-10. In addition, the GI50 in the assay on M14, with SK-MEL-28, with HOP-62, in the assay on UACC-62, in the assay with CAKI-1 and in the assay with 786-0 was > 100 µM (inactive) each time. Besides, the GI50 is > 100 µM (inactive) in the assay with SF-539; > 100 µM (inactive) with COLO 205; > 100 µM (inactive) with Malme-3M; > 100 µM (inactive) with RXF 393; > 100 µM (inactive) in the assay with UACC-257; 82 µM (inactive) in the assay with MOLT-4.

In the case of `CN(C)CC/C(=N\Nc1ccc(Cl)cc1)c1ccccc1`, the GI50 in the assay on SW-620 is 0.431 µM (active); in the assay with SN12C, 1.58 µM (inactive); in the assay with LOX IMVI, 0.256 µM (active); with HL-60 it was 0.369 µM (active); in the assay on K562, 0.327 µM (active); in the assay with TK-10, 0.593 µM (active). Moreover, the GI50 in the assay on M14 is 1.67 µM (inactive); with SK-MEL-28 it was 1.52 µM (inactive); in the assay with HOP-62 it was 1.68 µM (inactive); in the assay on SNB-75 it was 2.15 µM (inactive); in the assay on UACC-62, 0.556 µM (active); with 786-0, 1.26 µM (inactive). Also, the GI50 in the assay on SF-539 is 1.92 µM (inactive); in the assay with COLO 205, 1.75 µM (inactive); in the assay on Malme-3M, 1.98 µM (inactive); in the assay with RXF 393, 2.57 µM (inactive); with UACC-257 it was 1.64 µM (inactive); with MOLT-4, 0.403 µM (active).

In the case of `CC(C)(c1ccc(C=O)o1)c1ccc(C(C)(C)c2ccc(C=O)o2)o1`, the GI50 in the assay on SW-620, in the assay on LOX IMVI, in the assay on HL-60, in the assay with K562, with TK-10 and in the assay on SK-MEL-28 was > 100 µM (inactive) throughout. Further, the GI50 in the assay with HOP-62, with CAKI-1, with 786-0, in the assay on SF-539, in the assay with COLO 205 and in the assay on Malme-3M was > 100 µM (inactive) throughout. Moreover, the GI50 with RXF 393, in the assay on UACC-257 and with MOLT-4 was > 100 µM (inactive) in each case.

For the compound `COc1cc(/C=C(\C#N)C(=O)c2ccccc2)ccc1OCc1ccccc1`, the GI50 in the assay on SW-620, in the assay with SN12C, in the assay with LOX IMVI, in the assay with HL-60, in the assay on K562 and in the assay with TK-10 was > 100 µM (inactive) each time. For the same compound, the GI50 in the assay with M14, in the assay on SK-MEL-28, in the assay with HOP-62, in the assay with UACC-62, in the assay on CAKI-1 and with 786-0 was > 100 µM (inactive) in each case. For the same compound, the GI50 with SF-539, in the assay on COLO 205, in the assay on UACC-257 and in the assay on MOLT-4 was > 100 µM (inactive) each time.

Turning to `CC(=O)C1C(c2ccc(N(C)C)cc2)c2cc3c(cc2OC1(C)O)OCO3` (stereo not drawn), the GI50 was 40.2 µM (inactive) with SW-620; 40.1 µM (inactive) with SN12C; 42.1 µM (inactive) in the assay with LOX IMVI; 24.3 µM (inactive) with HL-60; 24 µM (inactive) in the assay with K562; 51.2 µM (inactive) in the assay with TK-10. The GI50 was 43.8 µM (inactive) in the assay on M14; 57.4 µM (inactive) with SK-MEL-28; > 100 µM (inactive) in the assay with HOP-62; 24.7 µM (inactive) in the assay with SNB-75; 32.9 µM (inactive) with UACC-62; 20.5 µM (inactive) with CAKI-1. In addition, the GI50 in the assay on 786-0 was 36.7 µM (inactive); in the assay on COLO 205, 41.1 µM (inactive); in the assay on Malme-3M it was 53 µM (inactive); in the assay with RXF 393, 33.3 µM (inactive); in the assay on UACC-257, 51.8 µM (inactive); with MOLT-4, 32.1 µM (inactive).

Take `COc1cc(C(c2cccc3ccccc23)N2C(=O)CCC2C(=O)NCc2ccccc2)cc(OC)c1OC` (stereo not drawn): the GI50 with SW-620 is > 100 µM (inactive); in the assay with SN12C, > 100 µM (inactive); with LOX IMVI, > 100 µM (inactive); in the assay with HL-60, 57.7 µM (inactive); in the assay on M14, > 100 µM (inactive); with SK-MEL-28 it was > 100 µM (inactive). Also, the GI50 with HOP-62 was > 100 µM (inactive); in the assay on UACC-62, 64.6 µM (inactive); in the assay on CAKI-1 it was > 100 µM (inactive); in the assay with 786-0, > 100 µM (inactive); with SF-539, > 100 µM (inactive); in the assay with COLO 205 it was > 100 µM (inactive). For the same compound, the GI50 in the assay on Malme-3M was > 100 µM (inactive); in the assay with RXF 393 it was > 100 µM (inactive); with UACC-257, > 100 µM (inactive); in the assay with MOLT-4 it was 78 µM (inactive).

Regarding `CS/C(=N/C#N)NCCc1c[nH]c2ccccc12`, the GI50 is > 100 µM (inactive) in the assay on SW-620; > 100 µM (inactive) in the assay with SN12C; > 100 µM (inactive) in the assay with LOX IMVI; 55.2 µM (inactive) with HL-60; 67 µM (inactive) in the assay on K562; > 100 µM (inactive) in the assay with TK-10. Besides, the GI50 is > 100 µM (inactive) in the assay on M14; > 100 µM (inactive) in the assay on SK-MEL-28; > 100 µM (inactive) in the assay on HOP-62; 35.2 µM (inactive) in the assay on SNB-75; > 100 µM (inactive) in the assay with UACC-62; 45.6 µM (inactive) with 786-0. Moreover, the GI50 with SF-539 is > 100 µM (inactive); with COLO 205, > 100 µM (inactive); in the assay on RXF 393, > 100 µM (inactive); in the assay on UACC-257, > 100 µM (inactive); with MOLT-4, 80.7 µM (inactive).

In the case of `O=C(CC(CC(=O)Oc1c(Br)cc(Br)cc1C(=O)O)C(=O)Oc1c(Br)cc(Br)cc1C(=O)O)Oc1c(Br)cc(Br)cc1C(=O)O`, the GI50 is 69.5 µM (inactive) in the assay with SW-620; 52.1 µM (inactive) in the assay on SN12C; 30.8 µM (inactive) in the assay with LOX IMVI; 43.7 µM (inactive) in the assay on HL-60; 41.4 µM (inactive) in the assay on K562; 51.4 µM (inactive) in the assay with TK-10. The GI50 in the assay with M14 was 91.6 µM (inactive); in the assay on SK-MEL-28, > 100 µM (inactive); in the assay with HOP-62, 46.5 µM (inactive); in the assay on SNB-75 it was 26.1 µM (inactive); with UACC-62, 49.9 µM (inactive); in the assay with CAKI-1, 72.6 µM (inactive). The GI50 with 786-0 is > 100 µM (inactive); in the assay on SF-539, 48.1 µM (inactive); in the assay with COLO 205, > 100 µM (inactive); in the assay on Malme-3M, 70.1 µM (inactive); with UACC-257, 83.6 µM (inactive); with MOLT-4, 46.5 µM (inactive).

Take `CC(C)[C@@H](COC(C)(C)C)/N=C/N1CCc2c([nH]c3ccccc23)C1`: the GI50 with SW-620, with SN12C, with LOX IMVI, with HL-60, with K562 and in the assay with TK-10 was > 100 µM (inactive) each time. Besides, the GI50 in the assay on M14, with SK-MEL-28, with HOP-62, in the assay on SNB-75, with UACC-62 and in the assay with 786-0 was > 100 µM (inactive) in each case. Moreover, the GI50 in the assay with SF-539, in the assay with COLO 205, in the assay on RXF 393 and in the assay with MOLT-4 was > 100 µM (inactive) each time.

Regarding `CC(=O)c1cccc(N2COC(C)(C)c3nc4ccccc4n3C2)c1`, the GI50 in the assay on SW-620, in the assay with SN12C, in the assay on LOX IMVI, in the assay with HL-60, in the assay with K562 and with TK-10 was > 100 µM (inactive) in each case. Besides, the GI50 in the assay on M14, in the assay with SK-MEL-28, in the assay on HOP-62, in the assay on SNB-75, with UACC-62 and in the assay on 786-0 was > 100 µM (inactive) in each case. The GI50 with SF-539, in the assay with COLO 205, with Malme-3M, with RXF 393, with UACC-257 and in the assay on MOLT-4 was > 100 µM (inactive) throughout.
